This is an account of results in patent US20210181109A1 (FUJIFILM Corporation, priority 2018, published 2021).

Like-named read-outs stand apart in the source and are kept apart here.

The nature of data set [1]: NAC depletion percent, HPLC-fluorescence detection. Put shortly: (§1)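 NAC at 5 μmol/L in pH 8.0 phosphate buffer reacted with test substance (1 mmol/L stock in water, acetonitrile, acetone or 5% DMSO/acetonitrile) 24 h at 25 °C in the dark, n=3. Stopped with TFA (0.5% final); unreacted NAC quantified by HPLC, depletion percent calculated against blank without test substance.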

Data set [2] in a line: NAL depletion percent, HPLC-fluorescence detection. The procedure, abridged: (§2)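 NAL (5 μmol/L, pH 10.2 phosphate buffer) reacted with test substance (1 mmol/L stock in water, acetonitrile, acetone or 5% DMSO/acetonitrile) for 24 h at 25 °C in the dark; stopped with TFA to 0.5%. Unreacted NAL quantified by HPLC (UV or fluorescence), n=3; depletion % relative to substance-free blank.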

Data set [3] in a line: Average score of NAC and NAL depletion and prediction of skin allergenicity, fluorescence method. Put shortly: (§3)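 Score is the mean of NAC and NAL depletion percentages, rounded at the second decimal place. Test substances classed as allergenic (S) or non-allergenic (NS) from depletion of NAC, NAL, or their average score.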
Data set [4] is described as follows: NAC depletion percent, HPLC-UV detection (281 nm). The conditions noted are these: Reference (UV method). Put shortly:
as §1

Data set [5] is described as follows: NAL depletion percent, HPLC-UV detection (281 nm). Particulars: Reference (UV method). The procedure, abridged:
as §2

The nature of data set [6]: Average score of NAC and NAL depletion and prediction of skin allergenicity, UV method. Put shortly:
as §3

For data set [7] the following is noted: cited from earlier work.
[8] abbreviates: single substance, test substance solution 1 mmol/L, fluorescence method.
Where [9] appears, read: single substance, fluorescence method, criterion average score […].
Where [10] appears, read: single substance, test substance solution 1 mmol/L.
Setting [11] is: single substance, Reference (UV method), criterion average score […].
Where [12] appears, read: single substance, test substance solution 1 mmol/L, Reference (UV method).
Where [13] appears, read: known values, LLNA-test-based classification, − for non-allergenic substances.
Setting [14] is: Fluorescence method, non-allergenic substance.

For the molecule Vinylpyridine, the “NAC depletion (%)” value in data set [1] (setting [8]) worked out at 19.8%; in data set [4] (setting [10]) it was 18.1%. Also, the figures for the “NAL depletion (%)” value in data set [2] (setting [8]) and in data set [5] (setting [10]) were 3.6% and 7.7%, respectively. Besides, the Prediction result in data set [3] (setting [9]) and in data set [6] (setting [11]) was “S (S represents as being an allergenic substance)” in each case. The results for the Average score in data set [3] (setting [8]) and in data set [6] (setting [12]) were 11.7% and 12.9%, respectively. For the same molecule, the “EC3 (%)” value in data set [7] (setting [13]) was 1.6%.

Fluorescein isothiocyanate: the “NAC depletion (%)” value in data set [1] (setting [8]) is listed as 81.3%; in data set [4] (setting [10]) it was 73.6%. For the same molecule, the “NAL depletion (%)” value turned out to be 97.6% in data set [2] (setting [8]) and 98.1% in data set [5] (setting [10]). Further, the Prediction result in data set [3] (setting [9]) and in data set [6] (setting [11]) was “S (S represents as being an allergenic substance)” throughout. Besides, the values for the Average score in data set [3] (setting [8]) and in data set [6] (setting [12]) were 89.4% and 85.8%, respectively. In addition, in data set [7] (in vivo), the “EC3 (%)” value is recorded as 0.14%.

On to `CCCOC(=O)c1cc(O)c(O)c(O)c1` [Propyl gallate], for which the “NAC depletion (%)” value in data set [1] (setting [8]) is given as 100.0%; in data set [4] (setting [10]), 97.1%. Moreover, the “NAL depletion (%)” value worked out at 65.3% in data set [2] (setting [8]) and 56.4% in data set [5] (setting [10]). Also, the Prediction result in data set [3] (setting [9]) and in data set [6] (setting [11]) was “S (S represents as being an allergenic substance)” each time. Also, the Average score in data set [3] (setting [8]) is reported as 82.6%; in data set [6] (setting [12]) it was 76.7%. In addition, the “EC3 (%)” value in data set [7] (setting [13]) is 0.32%.

As for `CCO/C=C1\N=C(c2ccccc2)OC1=O` [Oxazolone], the “NAC depletion (%)” value in data set [1] (setting [8]) is reported as 92.0%; in data set [4] (setting [10]) it was 85.3%. The “NAL depletion (%)” value amounted to 65.5% in data set [2] (setting [8]) and 80.1% in data set [5] (setting [10]). For the same molecule, the figures for the Average score in data set [3] and in data set [6] were 78.8% and 82.7%, respectively. For the same molecule, the Prediction result in data set [3] and in data set [6] was “S (key: S represents as being an allergenic substance; NS represents as being a non-allergenic substance)” each time. The “EC3 (%)” value in data set [7] (in vivo) is reported as 0.003%.

For the molecule `O=C1OC(=O)c2ccccc21` [Phthalic anhydride], the “NAC depletion (%)” value in data set [1] (setting [8]) and in data set [4] (setting [10]) was 0.3% in each case. Besides, the “NAL depletion (%)” value in data set [2] (setting [8]) is reported as 92.6%; in data set [5] (setting [10]) it was 96.9%. For the same molecule, the Prediction result in data set [3] (setting [9]) and in data set [6] (setting [11]) was “S (S represents as being an allergenic substance)” in each case. In addition, the Average score in data set [3] (setting [8]) was 46.4%; in data set [6] (setting [12]), 48.6%. Moreover, the “EC3 (%)” value in data set [7] (setting [13]) is reported as 0.16%.

As for `CCCCCCCCC(=O)Cl` [Nonanoyl chloride], the “NAC depletion (%)” value is 8.9% in data set [1] (setting [8]) and 7.4% in data set [4] (setting [10]). For the same molecule, the entries for the “NAL depletion (%)” value in data set [2] (setting [8]) and in data set [5] (setting [10]) were 54.5% and 39.4%, respectively. The Prediction result in data set [3] (setting [9]) and in data set [6] (setting [11]) was “S (S represents as being an allergenic substance)” each time. For the same molecule, the Average score is 31.7% in data set [3] (setting [8]) and 23.4% in data set [6] (setting [12]). Moreover, the “EC3 (%)” value in data set [7] (setting [13]) is recorded as 1.8%.

For the molecule `CCCCCCCCC(=O)O` [Nonanoic acid], the “NAC depletion (%)” value in data set [1] (setting [14]) and in data set [4] (non-allergenic substance) was 0.0% in each case. Also, the “NAL depletion (%)” value stood at 0.0% in data set [2] (setting [14]) and 1.3% in data set [5] (non-allergenic substance). Further, the Prediction result in data set [3] (Fluorescence method, skin allergenicity prediction) is “NS (NS represents as being a non-allergenic substance)”; in data set [6] (Reference (UV method), skin allergenicity prediction), “NS (NS represents as being a non-allergenic substance)”. Moreover, in data set [7] (setting [13]), the “EC3 (%)” value is recorded as 21%.

For `CCN(CCNS(C)(=O)=O)c1ccc(N)c(C)c1.CCN(CCNS(C)(=O)=O)c1ccc(N)c(C)c1.O=S(=O)(O)O.O=S(=O)(O)O.O=S(=O)(O)O` [CD3], the “NAC depletion (%)” value in data set [1] (setting [8]) turned out to be 100.0%; in data set [4] (setting [10]), 76.6%. Besides, the “NAL depletion (%)” value in data set [2] (setting [8]) was 8.1%; in data set [5] (setting [10]) it was 16.5%. Moreover, the Prediction result in data set [3] (setting [9]) and in data set [6] (setting [11]) was “S (S represents as being an allergenic substance)” throughout. Also, the Average score is 54.0% in data set [3] (setting [8]) and 46.6% in data set [6] (setting [12]). Moreover, in data set [7] (setting [13]), the “EC3 (%)” value is reported as 0.6%.
